Results taken from patent US20260132115A1, “SUBSTITUTED 3-FLUOROBENZENEPROPANOATE COMPOUND AND PREPARATION METHOD THEREFOR, PHARMACEUTICAL COMPOSITION THEREOF, AND USE THEREOF” (TIANJIN GUDUI BIO-PHARM CO., LTD., priority 2022, published 2026).
Where two headings read alike, the source gives them in different places. Marks after values point to notes of the source that are not given here.

Columns and labels:
[1] = tested on: λ-Carrageenan-Induced Rat Toe Swelling; test: Anti-inflammatory effect on λ-carrageenan-induced rat toe swelling; format: in vivo, SD rats; conditions: 10 mg/kg intraperitoneal, 1 h before 1% λ-carrageenan; for inhibition in vivo at 10 mg/kg: Rattus norvegicus, ip
Method: Experimental method: Male SD rats weighing 150-160 g were randomly grouped, with 10 rats in each group. The rats were intraperitoneally injected with saline, the compounds of the present disclosure, and the control drug flurbiprofen or flurbiprofen axetil respectively, all of which were administered at a dose of 10 mg/kg and a dosing volume of 10 μL/g. At 1 h after administration, 100 μL of 1% λ-carrageenan was injected into the right hind toe of each rat to induce inflammation. Afterwards, the paw volume was measured every 1 h using a paw volume meter to calculate the swelling inhibition rate.

[2] = tested on: Dry Yeast-Induced Rat Fever Models; test: Antipyretic effect on dry yeast-induced fever in rats; format: in vivo, SD rats; conditions: rectal temperature, 10 mg/kg intraperitoneal, 20 min before 20% dry yeast s.c.
Method: Experimental method: Male SD rats, aged 4 weeks, were randomly grouped, with 10 rats in each group. […] The rats were intraperitoneally injected with saline, the compounds of the present disclosure or the control drug flurbiprofen respectively, all of which were administered at a dose of 10 mg/kg and a dosing volume of 10 μL/g. At 20 min after administration, 20% active dry yeast suspension was injected subcutaneously. After modeling, the rectal temperatures were measured at 4 h and 8 h.

rats with CIA = test: Analgesic and anti-inflammatory effects on collagen-induced rheumatoid arthritis (CIA) in rats; format: in vivo, Lewis rats; conditions: for paw volume effect as compared to the flurbiprofen group: left hind limb, 14-day intervention, 10 mg/kg (FIG. 3); for MWT effect as compared to the flurbiprofen group: left lower limb, 13-day intervention, 10 mg/kg (FIG. 4)
Method: Experimental method: Female Lewis rats, aged 6-8 weeks, were randomly grouped, with 8 rats in each group. Under the ambient temperature of 20.5° C. to 24.5° C. and the humidity of 40% to 70%, the light period was 12-h bright and 12-h dark. Type II collagen was mixed with Freund's incomplete adjuvant (IFA) at a ratio of 1:1 and fully emulsified on ice before use. 100 μL of the mixed solution was injected intradermally at the part 2 to 3 cm from the base of the rat tail, and 50 μL of the mixed solution was injected into the bases of both hind limbs separately. The rats in the blank control group were injected with an equal volume of saline. IFA was used for re-immunization 7 days later. […] Rats with a total score of more than 2 on both hind limbs were selected and randomly divided into a model group, a flurbiprofen group, a compound 33 group, a compound 2 group, a compound 13 group, a compound 20 group, and a compound 35 group according to the body weight, score and paw volume, and furthermore a blank control group was set up, with 8 rats in each group. The dosing […] was […], and the dosing time was 14 days. A corresponding volume of solvent was administered in the model group and the blank control group.
Test indicators: body weight, arthritis score, hind limb paw volume, and mechanical foot threshold (MWT).
Standard for arthritis score: 0=normal; 1=erythema and slight swelling observed at the ankle joint; 2=erythema and slight swelling observed from the ankle joint to the metatarsal joint or the metacarpal joint; 3=erythema and moderate swelling observed from the ankle joint to the metatarsophalangeal joint or the metacarpal joint; 4=erythema and severe swelling observed from the ankle joint to the metatarsal joint; the total score of all (four) paws was calculated, and the sum of the arthritis indices was up to 16 per rat.

Eca-109 = test: Antitumor potency, MTT method, Eca-109; format: cell-based; conditions: Homo sapiens, 72 h incubation
Method: (§1) Experimental method: The antitumor potency was tested by the MTT method. Tumor cells at the logarithmic phase were collected. The concentration of the cell suspension was adjusted. 100 μL of the cell suspension was added to each well. Cell plating was carried out and the cell density was adjusted to 1000 to 10000/well (the marginal wells were filled with sterile PBS). The cells were incubated at 5% CO2 and 37° C. until the cells adhered to the wall (96-well flat-bottomed plate). Drugs of different concentration gradients were added, 100 μL per well. Four replicates were set up. Under the conditions of 5% CO2 and 37° C., the cells were incubated for 72 h and observed under an inverted microscope. The prepared MTT solution (5 mg/mL) was added to the 96-well plate, 20 μL per well, mixed well, and incubated for 4 h under the conditions of 37° C. and 5% CO2. Afterwards, the liquid in the plate was discarded. 150 μL of DMSO was added to each well and oscillated for 3 min on a microplate reader. The OD value (optical density) was detected at 490 nm.
(§2) The inhibition rate of the drug against the tumor cell growth was calculated according to the following formula: […]

MM.1S = test: Antitumor potency, MTT method, MM.1S; format: cell-based; conditions: Homo sapiens, MM1.S, 72 h incubation
Method: as §1, §2

NUGC-4 = test: Antitumor potency, MTT method, NUGC-4; format: cell-based; conditions: Homo sapiens, 72 h incubation
Method: as §1, §2

U87 = test: Antitumor potency, MTT method, U87; format: cell-based; conditions: Homo sapiens, U-87 MG, 72 h incubation
Method: as §1, §2

U251 = test: Antitumor potency, MTT method, U251; format: cell-based; conditions: Homo sapiens, U-251, 72 h incubation
Method: as §1, §2

H460 = test: Antitumor potency, MTT method, H460; format: cell-based; conditions: Homo sapiens, NCI-H460, 72 h incubation
Method: as §1, §2

[3] = In vivo pharmacokinetic assay in rats (gavage, plasma); conditions: female, Sprague Dawley, po, prototype drug in rat plasma, dose equimolar to 50 mg/kg flurbiprofen
Method: Experimental method: Adult female Sprague Dawley rats, aged 8-10 weeks and weighing 200±20 g, were randomly grouped, with 3 rats in each group. Rats in each of the groups were administered by gavage at a dose of 50 mg/kg of flurbiprofen and an equimolar dose of other example compounds to 50 mg/kg of flurbiprofen, respectively. After gavage administration, blood was collected at 0.0833 […], and 24 h into sodium heparin anticoagulant tubes, respectively. The blood was collected by the following method: 250 μL of blood were collected from the orbital venous plexuses of the rats. After blood collection, the blood samples were centrifuged at 12000 rpm in a centrifuge for 5 min. All plasma was aspirated into a 1.5-mL centrifuge tube, and the plasma was stored in a refrigerator at -80° C. The pharmacokinetic parameters were determined by the external standard curve method. Sample processing: after the cryopreserved samples were removed and restored to room temperature, the samples were vortexed evenly and then diluted two folds with methanol; the sample solution was diluted 5 folds by adding a mixed extractant of 0.5% formic acid-containing acetonitrile:methanol=7:3, and subjected to vortex oscillation for 1 min. Subsequently, the resultant was centrifuged at 4° C. and 12000 rpm for 10 min, and then 5 μL of the supernatant was measured for assay. The pharmacokinetic parameters in the Examples were calculated using the Winnonlin software.

[4] = 6 h, read-out: Toe Swelling Inhibition Rate at 6 h
[5] = 24 h, read-out: Toe Swelling Inhibition Rate at 24 h

Row | Compound | inhibition in vivo at 10 mg/kg [1, 4] [%] | inhibition in vivo at 10 mg/kg [1, 5] [%] | Temp. at 4 h After Dosing [2] [°C] | Temp. at 8 h After Dosing [2] [°C] | other results
1 | CC(C(=O)OCOC(=O)N1C[C@@H](C)O[C@@H](C)C1)c1ccc(-c2ccccc2)c(F)c1 (stereo partly shown) [Compound 3] | 45.3 | 28.1 | – | – | –
2 | CC(C(=O)OCOC(=O)N[C@@H](Cc1ccc(O)cc1)C(=O)O)c1ccc(-c2ccccc2)c(F)c1 (stereo partly shown) [Compound 7] | 47.9 | 21.5 | – | – | –
3 | CC(OC(=O)C(C)c1ccc(-c2ccccc2)c(F)c1)OC(=O)N1CCOCC1 (stereo not shown) [Compound 9] | – | – | 37.17 ± 0.23 | 37.10 ± 0.37 | –
4 | CCCN(CCC)C(=O)OCOC(=O)C(C)c1ccc(-c2ccccc2)c(F)c1 (stereo not shown) [Compound 13] | 46 | 37 | 37.10 ± 0.172 | 37.32 ± 0.27 | paw volume effect as compared to the flurbiprofen group (rats with CIA): better effects; MWT effect as compared to the flurbiprofen group (rats with CIA): slightly better or better effects; IC50 (Eca-109): 30.7 µM; IC50 (MM.1S): 5.39 µM; IC50 (NUGC-4): 40.1 µM; IC50 (U87): 80.5 µM; IC50 (U251): 73.9 µM; IC50 (H460): 47.9 µM
5 | CC(=O)N1CCN(C(=O)OCOC(=O)C(C)c2ccc(-c3ccccc3)c(F)c2)CC1 (stereo not shown) [Compound 15] | – | – | 37.16 ± 0.16 | 37.27 ± 0.24 | –
6 | CC(C(=O)OCOC(=O)N1CCC(O)CC1)c1ccc(-c2ccccc2)c(F)c1 (stereo not shown) [Compound 20] | 52.7 | 45 | 37.09 ± 0.25 | 37.27 ± 0.26 | paw volume effect as compared to the flurbiprofen group (rats with CIA): better effects; MWT effect as compared to the flurbiprofen group (rats with CIA): slightly better or better effects; IC50 (Eca-109): 33.2 µM; IC50 (MM.1S): 42.8 µM; IC50 (NUGC-4): 50.4 µM; IC50 (U87): 54.6 µM; IC50 (U251): 5.84 µM; IC50 (H460): 35.9 µM
7 | CC(C(=O)OCOC(=O)N(CCO)CCO)c1ccc(-c2ccccc2)c(F)c1 (stereo not shown) [Compound 25] | – | – | – | – | AUC [3]: 63000 ± 11800 ng·h/mL; Cmax [3]: 3860 ± 178 ng/mL; half-life ([3]; read-out: Prototype Drug t1/2 (converted)): 486 ± 265 min
8 | CCCN(CCC)C(=O)OCOC(=O)[C@@H](C)c1ccc(-c2ccccc2)c(F)c1 [Compound 29] | 45.8 | 29.6 | 37.12 ± 0.13 | 37.35 ± 0.23 | –
9 | C[C@H](C(=O)OCOC(=O)N1CCC(O)CC1)c1ccc(-c2ccccc2)c(F)c1 [Compound 31] | 45.4 | 31.9 | 37.12 ± 0.30 | 37.22 ± 0.30 | –
10 | CC(=O)Oc1ccccc1C(=O)OCOC(=O)C(C)c1ccc(-c2ccccc2)c(F)c1 (stereo not shown) [Compound 36] | 45.3 | 28.1 | 37.38 ± 0.31 | 37.24 ± 0.16 | –
11 | CC(C(=O)OCOC(=O)c1ccc(N(C)C)cc1O)c1ccc(-c2ccccc2)c(F)c1 (stereo not shown) [Compound 41] | 43 | 32.2 | 37.19 ± 0.35 | 37.30 ± 0.31 | –
12 | COc1cc(COC(=O)C(C)c2ccc(-c3ccccc3)c(F)c2)cc(OC)c1 (stereo not shown) [Compound 47] | 49.3 | 33.9 | 37.17 ± 0.27 | 37.26 ± 0.22 | –
13 | CC(C(=O)OCc1ccccc1O)c1ccc(-c2ccccc2)c(F)c1 (stereo not shown) [Compound 48] | 44.1 | 33.9 | 37.11 ± 0.23 | 37.21 ± 0.25 | –
14 | CC(C(=O)OCOC(=O)CCCCCN1C(=O)C=CC1=O)c1ccc(-c2ccccc2)c(F)c1 (stereo not shown) [Compound 53] | 69 | 75.2 | 37.04 ± 0.20 | 37.02 ± 0.30 | –
15 | CC(C(=O)OCOC(=O)CCN1C(=O)CCC1=O)c1ccc(-c2ccccc2)c(F)c1 (stereo not shown) [Compound 55] | 36.7 | 41.4 | – | – | –
16 | CC(C(=O)OCOC(=O)CCCN1C(=O)C=CC1=O)c1ccc(-c2ccccc2)c(F)c1 (stereo not shown) [Compound 57] | 43.8 | 43.4 | – | – | –
17 | CCCCN(CCCC)C(=O)OCOC(=O)C(C)c1ccc(-c2ccccc2)c(F)c1 (stereo not shown) [Compound 65] | 43.1 | 43.8 | 37.10 ± 0.20 | 37.24 ± 0.23 | –
18 | CCCCCCN(C)C(=O)OCOC(=O)C(C)c1ccc(-c2ccccc2)c(F)c1 (stereo not shown) [Compound 67] | 48.6 | 57.3 | 37.17 ± 0.19 | 37.16 ± 0.20 | –
19 | CC(C)CN(CC(C)C)C(=O)OCOC(=O)C(C)c1ccc(-c2ccccc2)c(F)c1 (stereo not shown) [Compound 69] | 65.9 | 70.6 | 37.09 ± 0.18 | 37.13 ± 0.27 | –
20 | CC(C(=O)O)c1ccc(-c2ccccc2)c(F)c1 (stereo not shown) [Flurbiprofen, reference compound] | 35.5 | 29.9 | 37.49 ± 0.43 | 37.67 ± 0.39 | IC50 (Eca-109): 85.5 µM; IC50 (MM.1S): > 100 µM; IC50 (NUGC-4): > 100 µM; IC50 (U87): > 100 µM; IC50 (U251): 34.1 µM; IC50 (H460): > 100 µM
21 | Flurbiprofen axetil [reference compound] | – | – | – | – | Toe Swelling Inhibition Rate at 6 h ([1]; 6 h): 35.53%**; Toe Swelling Inhibition Rate at 24 h ([1]; 24 h): 22.85%**
